We go through three compounds from PubChem BioAssay (NCI).

Test systems include HCC-2998 colon; IGROV1 ovarian; LOX IMVI melanoma; M14 melanoma; MCF7 breast; NCI-H226 lung; NCI-H23 lung; RPMI-8226 leukemia; SK-MEL-2 melanoma; SNB-75 CNS.
Holding throughout (assay): DTP human tumour cell line panel, 48 h

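Cells were grown in 96-well plates and exposed to each compound for 48 hours at five concentrations; endpoints were interpolated linearly between bracketing concentrations, or set to the highest concentration if not reached. The concentration for full growth arrest is given as TGI.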 Where only a bound is given, the exact number is not on record here.

What is called TGI is the concentration giving total growth inhibition. A higher TGI goes with less potent growth arrest. Regarding `CC1(C)CCC[C@@]2(C)C1CC[C@@]1(CO)O[C@H](C3=CC(=O)OC3O)C[C@H]12` (stereo not given in full), the TGI was found to be 31.3 µM in the assay on HCC-2998 colon; 42.5 µM in the assay with IGROV1 ovarian; 3.42 µM in the assay with LOX IMVI melanoma; 31.8 µM in the assay on M14 melanoma; 26.7 µM with MCF7 breast; 35.4 µM with NCI-H226 lung. Also, the concentration for total growth inhibition (TGI) in the assay with NCI-H23 lung was 26.6 µM; in the assay on RPMI-8226 leukemia, above 36.1 µM; in the assay with SK-MEL-2 melanoma, 28.9 µM; in the assay on SNB-75 CNS, 29.2 µM.
Turning to `COC(=O)[C@H](C)NC(=O)[C@H](NS(=O)(=O)c1nc2ccccc2s1)c1ccccc1`, the total growth inhibition concentration (TGI) with HCC-2998 colon is 44.5 µM; with IGROV1 ovarian, above 100 µM; in the assay on LOX IMVI melanoma it was 31.9 µM; in the assay with M14 melanoma it was 22.9 µM; in the assay on MCF7 breast it was above 100 µM; with NCI-H226 lung, 30.6 µM. In addition, the concentration for total growth inhibition (TGI) in the assay on NCI-H23 lung was above 100 µM; in the assay on RPMI-8226 leukemia it was above 100 µM; with SK-MEL-2 melanoma it was 25.2 µM; with SNB-75 CNS, 39.4 µM.
Regarding `Nc1c(C(=O)O)c2ccc([N+](=O)[O-])cc2c(=O)n1-c1nc2ccccc2s1`, the concentration for total growth inhibition (TGI) in the assay on HCC-2998 colon, in the assay with IGROV1 ovarian, in the assay with LOX IMVI melanoma, in the assay on M14 melanoma, in the assay on MCF7 breast and in the assay with NCI-H226 lung was above 100 µM throughout. In addition, the TGI in the assay with NCI-H23 lung, with RPMI-8226 leukemia, in the assay on SK-MEL-2 melanoma and in the assay on SNB-75 CNS was above 100 µM in each case.
